{
  "source": "paper PMC8838982",
  "about": "(Bioorganic chemistry, 2021)",
  "key": {"[1]": {"biological_target": "influenza virus polymerase (Influenza A virus, UniProt P03433)", "assay": "cell-based", "format": "cell-based, influenza virus A/PR/8/34"}, "[2]": {"biological_target": "Pandemic H1N1 N-terminal PA endonuclease (PAN) (Influenza A virus, UniProt C3W5S0)", "assay": "FRET-based", "format": "biochemical"}, "[3]": {"conditions": "Inhibition of polymerase activity EC50"}, "[4]": {"conditions": "read-out: Inhibition of polymerase activity EC50"}},
  "note": "Read-outs that look alike come from different tables or passages of the source.",
  "data": [
    {"compound": "O=C1c2c(ccc(O)c2O)CN1Cc1cccc2ccccc12", "note": "[Compound 22, 2-(naphthalen-1-ylmethyl)-6,7-dihydroxy-isoindolin-1-one]", "values": [
      {"measurement": "EC50", "setting": "[1]; [3]", "value": 26, "unit": "µM"}
    ]},
    {"compound": "O=C1c2c(ccc(O)c2O)CN1Cc1ccc(O)cc1", "note": "[Compound 17, 2-(4-hydroxybenzyl)-6,7-dihydroxy-isoindolin-1-one]", "values": [
      {"measurement": "Fold increase in EC50 compared to wild-type", "setting": "[1]", "value": 1.0, "unit": "fold"},
      {"measurement": "EC50", "setting": "[1]; [3]", "value": 4.2, "unit": "µM"},
      {"measurement": "IC50", "setting": "[2]", "value": "0.023 to 0.046", "unit": "µM"}
    ]},
    {"compound": "NC(=O)c1ncn([C@@H]2O[C@H](CO)[C@@H](O)[C@H]2O)n1", "note": "[Ribavirin, ribavirin]", "values": [
      {"measurement": "EC50", "setting": "[1]; [3]", "value": 11, "unit": "µM"}
    ]},
    {"compound": "O=C1c2c(ccc(O)c2O)CN1Cc1ccccc1", "note": "[Compound 14, 2-benzyl-6,7-dihydroxyisoindolin-1-one]", "values": [
      {"measurement": "EC50", "setting": "[1]; [3]", "value": 12, "unit": "µM"},
      {"measurement": "IC50", "setting": "[2]", "value": "0.023 to 0.046", "unit": "µM"}
    ]},
    {"compound": "O=C1c2c(ccc(O)c2O)CN1Cc1ccc(F)cc1", "note": "[Compound 18, 2-(4-fluorobenzyl)-6,7-dihydroxyisoindolin-1-one]", "values": [
      {"measurement": "EC50", "setting": "[1]; [3]", "value": 8.2, "unit": "µM"},
      {"measurement": "IC50", "setting": "[2]", "value": "0.023 to 0.046", "unit": "µM"}
    ]},
    {"compound": "O=C1c2c(ccc(O)c2O)CN1Cc1ccc2ccccc2c1", "note": "[Compound 21, 2-(naphthalen-2-ylmethyl)-6,7-dihydroxy-isoindolin-1-one]", "values": [
      {"measurement": "EC50", "setting": "[1]; [3]", "value": 5.4, "unit": "µM"},
      {"measurement": "IC50", "setting": "[2]", "value": 0.03, "unit": "µM"}
    ]},
    {"compound": "O=C1c2c(ccc(O)c2O)CN1Cc1ccc(F)c(Cl)c1", "note": "[Compound 15, 2-(3-chloro-4-fluorobenzyl)-6,7-dihydroxyisoindolin-1-one]", "values": [
      {"measurement": "EC50/IC50 ratio (cellular versus enzyme assay)", "setting": "[1]", "value": 145},
      {"measurement": "EC50", "setting": "[1]; [3]", "value": 3.6, "unit": "µM"},
      {"measurement": "IC50", "setting": "[2]", "value": "0.023 to 0.046", "unit": "µM"}
    ]},
    {"compound": "O=C1c2c(ccc(O)c2O)CN1CCc1ccc(O)cc1", "note": "[Compound 23, 2-(4-hydroxyphenethyl)-6,7-dihydroxy-isoindolin-1-one]", "values": [
      {"measurement": "EC50", "setting": "[1]; [4]", "value": 19, "unit": "µM"}
    ]},
    {"compound": "O=C1c2c(ccc(O)c2O)CN1Cc1ccc([N+](=O)[O-])cc1", "note": "[Compound 20, 2-(4-nitrobenzyl)-6,7-dihydroxy-isoindolin-1-one]", "values": [
      {"measurement": "EC50", "setting": "[1]; [3]", "value": 28, "unit": "µM"},
      {"measurement": "IC50", "setting": "[2]", "value": "0.023 to 0.046", "unit": "µM"}
    ]},
    {"compound": "baloxavir acid [BXA]", "values": [
      {"measurement": "Fold increase in EC50 compared to wild-type", "setting": "[1]", "value": 1.0, "unit": "fold"},
      {"measurement": "EC50", "setting": "[1]; [4]", "value": 0.0016, "unit": "µM"}
    ]},
    {"compound": "Cc1ccc(CN2Cc3ccc(O)c(O)c3C2=O)cc1", "note": "[Compound 16, 2-(4-methylbenzyl)-6,7-dihydroxy-isoindolin-1-one]", "values": [
      {"measurement": "EC50", "setting": "[1]; [4]", "value": 4.1, "unit": "µM"}
    ]},
    {"compound": "O=C1c2c(ccc(O)c2O)CN1Cc1ccc(C(F)(F)F)cc1", "note": "[Compound 19, 2-(4-(trifluoromethyl)benzyl)-6,7-dihydroxy-isoindolin-1-one]", "values": [
      {"measurement": "EC50", "setting": "[1]; [3]", "value": 19, "unit": "µM"},
      {"measurement": "Reduction of PAN inhibitory activity compared to the 4-F analogue 18", "setting": "[2]; factor, relative to 18", "value": 9, "unit": "fold"}
    ]}
  ]
}
